Experimental data: patent publication US20120251527A1, “PODOCYTE SPECIFIC ASSAYS AND USES THEREOF” (University of Miami, priority 2009, published 2012)

Tested on: NFAT
Experiment: Podocyte-NFAT reporter assay (luciferase)
Format: cell-based, mouse
Conditions: for baseline NFAT activity: wild type (wt) podocytes, single inhibitor, FIG. 8
Source text: Podocyte-NFAT reporter assays: A podocyte cell line that stably expressed pGL4.30 reporter plasmid (Promega) was generated. pGL4.30 includes the luc2P firefly luciferase gene under the control of the NFAT response element. For LPS treatments both wt and stable TRPC6 knockdown podocyte cell line were transiently transfected with the pGL4.30 and pGL4.74 reporter plasmids (Promega). pGL4.74 includes the hRluc Renilla luciferase gene under the control of the constitutive HSV-TK promoter, serving as an internal control for normalization of the results. Cells were seeded in 96 well plates in standardized cell number and differentiated for three weeks prior to transfection and treatments. Stable cell lines were probed with BRIGHT-GLO Luciferase Assay System (Promega), transiently transfected cells were assayed with DUAL-GLO Luciferase Assay System (Promega). Luminescence was measured on a Molecular Devices luminescence microplate reader SpectraMax L. All experiments were carried out in octuplicate per condition and repeated in three independent experiments.

Row | Compound | baseline NFAT activity | NFAT activity after pretreatment with the substance (wt podocytes, versus low baseline, FIG. 6A)
1 | O=S(=O)(NCCNC/C=C/c1ccc(Br)cc1)c1cccc2cnccc12 [H-89] | reduction | –
2 | CN([C@@H](Cc1ccc(OS(=O)(=O)c2cccc3cnccc23)cc1)C(=O)N1CCN(c2ccccc2)CC1)S(=O)(=O)c1cccc2cnccc12 [KN-62] | reduction | –
3 | lipopolysaccharide [LPS] | – | strongly increased
